The values below come from ChEMBL document CHEMBL4840357, “Functionalized Dioxonaphthoimidazoliums: A Redox Cycling Chemotype with Potent Bactericidal Activities against Mycobacterium tuberculosis” (J Med Chem, 2021).

Values after ≈ are worked out from the molar mass of the structure shown.

The test system of the test is Mycobacterium tuberculosis variant bovis BCG. In words: Antimycobacterial activity against Mycobacterium bovis BCG ATCC 35734 incubated for 5 days by broth dilution method. It is filed as functional. Conditions: ATCC 35734, 120 h, time 5 day. On the technique in general: Dilution methods test growth across graded concentrations, often in twofold steps.
In the case of `CCCCn1c2c([n+](C3CC3)c1C)C(=O)c1ccccc1C2=O`, the MIC90 (in general, the lowest concentration that inhibits either 90% of growth or 90% of the strains tested, depending on the study) is 6.9 µM.

As to `CCCCn1c2c([n+](CCC3CCCCC3)c1C)C(=O)c1ccccc1C2=O`, the MIC90 is 0.37 µM.

`CCCCn1c2c([n+](Cc3ccccc3)c1C)C(=O)c1ccccc1C2=O`: the MIC90 stood at 0.43 µM.

Take `CCCCCCCCn1c2c([n+](CCCCCCCC)c1C)C(=O)c1ccncc1C2=O`: the MIC90 worked out at 1.1 µM.

`Cc1n(CC(C)C)c2c([n+]1C)C(=O)c1ccccc1C2=O` came in with an MIC90 of 6.3 µM.

As to `CCCCCCn1c2c([n+](CCCCCC)c1C)C(=O)c1cccnc1C2=O`, the MIC90 came out at 2.3 µM.

Molecule `CCCCCCCCCC[n+]1c2c(n(CC(C)C)c1C)C(=O)c1ccccc1C2=O` gave an MIC90 of 0.36 µM.

On to `CCCn1c2c([n+](CC)c1C)C(=O)c1ccccc1C2=O`, for which the MIC90 came to 8.3 µM.

In turn, `Cc1nc2c(n1C(C)C)C(=O)c1ccccc1C2=O` returned an MIC90 greater than 50 µM.

On to `CCCCCCCCCCn1c2c([n+](C(C)CC)c1C)C(=O)c1ccccc1C2=O` (centres undefined), for which the MIC90 amounted to 0.52 µM.

Molecule `CCC(C)[n+]1c2c(n(C)c1C)C(=O)c1ccccc1C2=O` (centres undefined) came in with an MIC90 of 13 µM.

`CCC(C)[n+]1c2c(n(CC(C)C)c1C)C(=O)c1ccccc1C2=O` (centres undefined) came in with an MIC90 of 3.6 µM.

As to `CCCCCn1c(C)nc2c1C(=O)c1ccccc1C2=O`, the MIC90 stood at 39 µM (≈ 11 µg/mL).

`NNC(=O)c1ccncc1` [ISONIAZID]: the MIC50 (as a rule, an inhibitory concentration at the 50% level, which refers to growth in some studies and to a panel of isolates in others) is 1.6 µM (≈ 0.219 µg/mL).

In turn, `CCCCCCCCCn1c2c([n+](CCCCCCCCC)c1C)C(=O)c1ccncc1C2=O` yielded an MIC90 of 2.6 µM.

Regarding `Cc1n(CC(C)C)c2c([n+]1C(C)C)C(=O)c1ccccc1C2=O`, the MIC90 turned out to be 5.6 µM.

The molecule `CCCC[n+]1c2c(n(C(C)C)c1C)C(=O)c1ccccc1C2=O` displayed an MIC90 of 3.1 µM.

In turn, `Cc1n(C)c2c([n+]1C)C(=O)c1ccccc1C2=O` registered an MIC90 of 40 µM.

In the case of `CCCn1c(C)nc2c1C(=O)c1ccccc1C2=O`, the MIC90 was greater than 50 µM.

Consider `CC[n+]1c2c(n(C)c1C)C(=O)c1ccccc1C2=O`, for which the MIC90 is 22 µM.

Turning to `CCCCCCCCCCCCn1c(C)nc2ccccc21`, the MIC90 was found to be 10 µM (≈ 3 µg/mL).

Molecule `CCCCn1c2c([n+](C3CCCCCCC3)c1C)C(=O)c1ccccc1C2=O` displayed an MIC90 of 0.6 µM.

`Cc1n(C(C)C)c2c([n+]1C(C)C)C(=O)c1ccccc1C2=O` had an MIC90 of 25 µM.

Consider `CCCCCC[n+]1c2c(n(CCCC)c1C)C(=O)c1ccccc1C2=O`, for which the MIC90 is 0.43 µM.

With `CCCCn1c2c([n+](CCCC)c1C)C(=O)c1ccncc1C2=O`, the MIC90 is 21 µM.

On to `CCCCCCCCn1c2c([n+](CCCCC)c1C)C(=O)c1ccccc1C2=O`, for which the MIC90 is 0.33 µM.

For the molecule `CCCCn1c2c([n+](CC)c1C)C(=O)c1ccccc1C2=O`, the MIC90 was determined as 7.7 µM.

`CCCC[n+]1c2c(n(C)c1C)C(=O)c1ccccc1C2=O` displayed an MIC90 of 6.7 µM.

As for `CCCCn1c2c([n+](CCCC)c1C)C(=O)c1ccccc1C2=O`, the MIC90 was 1.9 µM.

`CCCCCCCCn1c2c([n+](CCCCCC)c1C)C(=O)c1ccccc1C2=O`: the MIC90 turned out to be 0.34 µM.

In turn, `CCn1c(C)nc2c1C(=O)c1ccccc1C2=O` yielded an MIC90 greater than 50 µM.

In turn, `CC[n+]1c2c(n(C(C)C)c1C)C(=O)c1ccccc1C2=O` displayed an MIC90 of 15 µM.

For `CCCCCCCCn1c2c([n+](CCCC)c1C)C(=O)c1cccnc1C2=O`, the MIC90 is 3.3 µM.

On to `Cc1n(CC(C)C)c2c([n+]1C1CC1)C(=O)c1ccccc1C2=O`, for which the MIC90 was 6 µM.

On to `CCCn1c2c([n+](C(C)C)c1C)C(=O)c1ccccc1C2=O`, for which the MIC90 was 21 µM.

`CCCCCCCCn1c(C)[n+](CCCC)c2ccccc21` gave an MIC90 greater than 50 µM.

The molecule `CCCCn1c2c([n+](C(C)CC)c1C)C(=O)c1ccccc1C2=O` (centres undefined) showed an MIC90 of 3.1 µM.

`CCCCCCCCn1c(C)nc2ccccc21` displayed an MIC90 of 23 µM (≈ 5.62 µg/mL).

Regarding `Cc1n(C(C)C)c2c([n+]1C1CC1)C(=O)c1ccccc1C2=O`, the MIC90 stood at 35 µM.

On to `CCCCCCCCCCCCn1c2c([n+](CCCCCCCCCCCC)c1C)C(=O)c1ccccc1C2=O`, for which the MIC90 was determined as 4.8 µM.

For `CCCCn1c2c([n+](CC3CCCCC3)c1C)C(=O)c1ccccc1C2=O`, the MIC90 worked out at 0.35 µM.

Molecule `CCC(C)[n+]1c2c(n(C3CC3)c1C)C(=O)c1ccccc1C2=O` (centres undefined) came in with an MIC90 of 13 µM.

Regarding `Cc1nc2c(n1C)C(=O)c1ccccc1C2=O`, the MIC90 is greater than 50 µM.

Turning to `CCCCCCCCCCCC[n+]1c2c(n(CC(C)C)c1C)C(=O)c1ccccc1C2=O`, the MIC90 was 0.54 µM.

As to `Cc1n(C2CC2)c2c([n+]1C1CC1)C(=O)c1ccccc1C2=O`, the MIC90 amounted to 37 µM.

`CC(C)/N=c1\cc2n(-c3ccc(Cl)cc3)c3ccccc3nc-2cc1Nc1ccc(Cl)cc1` [CLOFAZIMINE] registered an MIC50 of 0.2 µM (≈ 0.0947 µg/mL) and an MIC90 of 0.4 µM (≈ 0.189 µg/mL).

As to `CCC(C)[n+]1c2c(n(CC)c1C)C(=O)c1ccccc1C2=O` (centres undefined), the MIC90 amounted to 11 µM.

For the molecule `CCCCCCCCn1c2c([n+](C(C)CC)c1C)C(=O)c1ccccc1C2=O` (centres undefined), the MIC90 is 0.46 µM.

Take `CCCCCCCCCCn1c(C)nc2ccccc21`: the MIC90 turned out to be 15 µM (≈ 4.09 µg/mL).

In the case of `CCCn1c2c([n+](CCC)c1C)C(=O)c1ccccc1C2=O`, the MIC90 was determined as 25 µM.

Take `CCn1c2c([n+](C3CC3)c1C)C(=O)c1ccccc1C2=O`: the MIC90 came out at 15 µM.

In turn, `CCC[n+]1c2c(n(CC(C)C)c1C)C(=O)c1ccccc1C2=O` showed an MIC90 of 3 µM.

As to `Cc1n(C)c2c([n+]1C(C)C)C(=O)c1ccccc1C2=O`, the MIC90 is 6.2 µM.

Turning to `CCCCn1c(C)nc2ccccc21`, the MIC90 is greater than 50 µM.

In the case of `CCCCCCCCn1c2c([n+](CCCCCCCC)c1C)C(=O)c1ccccc1C2=O`, the MIC90 came to 0.88 µM.

With `CCCCCCCCCCn1c2c([n+](CCCCCCCCCC)c1C)C(=O)c1ccccc1C2=O`, the MIC90 came to 3.1 µM.

As for `CCC[n+]1c2c(n(C)c1C)C(=O)c1ccccc1C2=O`, the MIC90 turned out to be 18 µM.

With `CCC(C)[n+]1c2c(n(C(C)C)c1C)C(=O)c1ccccc1C2=O` (centres undefined), the MIC90 stood at 11 µM.

As to `CC[n+]1c2c(n(CC(C)C)c1C)C(=O)c1ccccc1C2=O`, the MIC90 is 4.9 µM.

In the case of `CCCn1c2c([n+](C(C)CC)c1C)C(=O)c1ccccc1C2=O` (centres undefined), the MIC90 worked out at 5.5 µM.

As to `CCn1c2c([n+](CC)c1C)C(=O)c1ccccc1C2=O`, the MIC90 was determined as 17 µM.

Regarding `CCCCn1c2c([n+](CCCN3CCOCC3)c1C)C(=O)c1ccccc1C2=O`, the MIC90 was 13 µM.

Molecule `CCCCn1c2c([n+](CCCC)c1C)C(=O)c1cccnc1C2=O` came in with an MIC90 of 12 µM.

Molecule `CCCC[n+]1c2c(n(CCC)c1C)C(=O)c1ccccc1C2=O` displayed an MIC90 of 2.3 µM.

Turning to `CCCn1c2c([n+](C3CC3)c1C)C(=O)c1ccccc1C2=O`, the MIC90 was determined as 17 µM.

Molecule `Cc1n(CC(C)C)c2c([n+]1CC(C)C)C(=O)c1ccccc1C2=O` displayed an MIC90 of 1.9 µM.

`CCCCCCn1c2c([n+](CCCCCC)c1C)C(=O)c1ccncc1C2=O` had an MIC90 of 5.4 µM.

Molecule `CCCCCCn1c2c([n+](CCCCCC)c1CC)C(=O)c1ccccc1C2=O` gave an MIC90 of 0.52 µM.

In turn, `CCCCCCCC[n+]1c2c(n(CCCC)c1CC)C(=O)c1ccccc1C2=O` returned an MIC90 of 0.49 µM.

Turning to `CCCCCCn1c2c([n+](C(C)CC)c1C)C(=O)c1ccccc1C2=O` (centres undefined), the MIC90 was determined as 0.66 µM.

The molecule `CCCCn1c(C)nc2c1C(=O)c1ccccc1C2=O` showed an MIC90 greater than 50 µM.

In the case of `CCCCCCCCn1c2c([n+](CCCCCCCC)c1C)C(=O)c1cccnc1C2=O`, the MIC90 was found to be 10 µM.

The molecule `CCCCn1c2c([n+](C3CCCCC3)c1C)C(=O)c1ccccc1C2=O` yielded an MIC90 of 1.4 µM.
